Test results reported in patent US20030232851A1, “Viral treatment” (The Procter & Gamble Company, priority 1999, published 2003).

Key:
[1] = system: HIV-1 cell line, CEMSKI; test: Long term in vitro study, CEMSKI, reverse transcriptase; type: cell-based; details: run through 242 days
Experimental: A microtiter-based reveres transcriptase (RT) reaction is utilized (Buckheit et al (1991) AIDS Research and Human Retroviruses 7:295-302). Tritiated thymidine triphosphate (NEN)(TTP) is resuspended in distilled water at 5 Ci/ml. Poly rA and oligo dT are prepared as a stock solution which is kept at −20° C. The RT reaction buffer is prepared fresh on a daily basis and consists of 125 μl 1M EGTA, 125 μl water, 125 μl Triton X-100, 50 μl Tris (pH 7.4), 50 μl 1 MDDT, and 40 μl 1M MgCl2. These three solutions are mixed together in a ratio of 1 part TTP, 2.5 parts poly rA:oligo dT, 2.5 parts reaction buffer and 4 parts distilled water. Ten microliters of this reaction mixture is placed in a round bottom microtiter place and 15 μl of virus containing supernatant is added and mixed. The plate is incubated at 37° C. for 60 minutes. […] Incorporated radioactivity is quantified utilizing a Wallac Microbeta scintillation counter. […]
The cell populations contain integrated copies of the HIV genome and constitutively produce HIV at relatively high levels or are latently infected and only produce virus after stimulation with phorbol esters, tumor necrosis factor or IL6 (U1 and ACH2). Reductions in virus products were observed when quantifying supernatant reverse transcriptase activity, […]

[2] = system: HIV-1 cell line, CEMIIIB; test: Long term in vitro study, CEMIIIB, reverse transcriptase; type: cell-based
Experimental: A microtiter-based reveres transcriptase (RT) reaction is utilized (Buckheit et al (1991) AIDS Research and Human Retroviruses 7:295-302). Tritiated thymidine triphosphate (NEN)(TTP) is resuspended in distilled water at 5 Ci/ml. Poly rA and oligo dT are prepared as a stock solution which is kept at −20° C. The RT reaction buffer is prepared fresh on a daily basis and consists of 125 μl 1M EGTA, 125 μl water, 125 μl Triton X-100, 50 μl Tris (pH 7.4), 50 μl 1 MDDT, and 40 μl 1M MgCl2. These three solutions are mixed together in a ratio of 1 part TTP, 2.5 parts poly rA:oligo dT, 2.5 parts reaction buffer and 4 parts distilled water. Ten microliters of this reaction mixture is placed in a round bottom microtiter place and 15 μl of virus containing supernatant is added and mixed. The plate is incubated at 37° C. for 60 minutes. Following reaction, the reaction volume is spotted onto filter mats, washed 6 times for 5 minutes each in a 5% sodium phosphate buffer, 2 times for 1 minute each in distilled water, 2 times for 1 minute each in 70% ethanol, and then dried. The dried filter mat is placed in a plastic sample bag, Betaplate scintillation fluid is added and the bag is heat sealed. Incorporated radioactivity is quantified utilizing a Wallac Microbeta scintillation counter.
Acute infection of most established human cell lines with HIV-1 results in the eventual establishment of a constitutive virus-producing chronically infected cell line. The cells can be passaged for long periods of time in culture without loss of virus production. These cells may be utilized to evaluate the effects of anti-HIV compounds on syncytium formation or to evaluate the effects of anti-HIV compounds on levels of virus production from these cells. […] Each of the cells contains an integrated HIV genome or provirus. Chronically infected CEM, H9 and U937 cell lines have been prepared and cultured by Southern Research Institute, Frederick Md. and are available from them.
CEM-SS cells chronically infected with HIV isolate, for example SKI (CEM-SKI) are cultured in RPMI1640 tissue culture medium supplemented with 10% fetal bovine serum and antibiotics. […] CEM-SKI or other infected cells with no added drug are used as the control cells. Cells are allowed to grow to a density of approximately 1×10^6 cells/ml and are then passaged at a 1:10 dilution. […] The drug concentration in the flask is then increased two-fold and the cells maintained as above.
The cell populations contain integrated copies of the HIV genome and constitutively produce HIV at relatively high levels or are latently infected and only produce virus after stimulation with phorbol esters, tumor necrosis factor or IL6 (U1 and ACH2). Reductions in virus products were observed when quantifying supernatant reverse transcriptase activity,
A long term in vitro study of 2-(2-thienyl)-imidazolo [4,5-b]pyridine against an HIV-1 cell line, CEMIIIB was conducted at three different levels. The results with CEMIIIB cells were reported at weekly intervals. The CEMIIIB is a viral strain of the CEMSS cell line and is a chronic HIV cell line.

c1csc(-c2nc3cccnc3[nH]2)c1 [2-(2-thienyl)-imidazolo [4,5-b]pyridine]
reverse transcriptase data on continuation (in words) [1]: data remained consistent
reverse transcriptase data ([2]; 7 μg/ml, day 4): 4631
reverse transcriptase data ([2]; 7 μg/ml, day 11): 4222
reverse transcriptase data ([2]; 7 μg/ml, day 18): 843
reverse transcriptase data ([2]; 7 μg/ml, day 25): 1052
reverse transcriptase data ([2]; 7 μg/ml, day 32): 1456
reverse transcriptase data ([2]; 7 μg/ml, day 39): 4298
reverse transcriptase data ([2]; 7 μg/ml, day 46): 1643
reverse transcriptase data ([2]; 7 μg/ml, day 53): 1458
reverse transcriptase data ([2]; 7 μg/ml, day 60): 1409
reverse transcriptase data ([2]; 7 μg/ml, day 67): 1903
reverse transcriptase data ([2]; 7 μg/ml, day 71): 1832
reverse transcriptase data ([2]; 7 μg/ml, day 74): 1980
reverse transcriptase data ([2]; 7 μg/ml, day 88): 1520
reverse transcriptase data ([2]; 7 μg/ml, day 95): 1367
reverse transcriptase data ([2]; 7 μg/ml, day 102): 1497
reverse transcriptase data ([2]; 7 μg/ml, day 109): 1165
reverse transcriptase data ([2]; 15 μg/ml, day 4): 5622
reverse transcriptase data ([2]; 15 μg/ml, day 11): 1828
reverse transcriptase data ([2]; 15 μg/ml, day 18): 683
reverse transcriptase data ([2]; 15 μg/ml, day 25): 741
reverse transcriptase data ([2]; 15 μg/ml, day 32): 1005
reverse transcriptase data ([2]; 15 μg/ml, day 39): 948
reverse transcriptase data ([2]; 15 μg/ml, day 46): 1361
reverse transcriptase data ([2]; 15 μg/ml, day 53): 1281
reverse transcriptase data ([2]; 15 μg/ml, day 60): 679
reverse transcriptase data ([2]; 15 μg/ml, day 67): 1251
reverse transcriptase data ([2]; 15 μg/ml, day 71): 1241
reverse transcriptase data ([2]; 15 μg/ml, day 74): 1361
reverse transcriptase data ([2]; 15 μg/ml, day 88): 1201
reverse transcriptase data ([2]; 15 μg/ml, day 95): 562
reverse transcriptase data ([2]; 15 μg/ml, day 102): 1043
reverse transcriptase data ([2]; 15 μg/ml, day 109): 1036
reverse transcriptase data ([2]; 30 μg/ml, day 4): 1968
reverse transcriptase data ([2]; 30 μg/ml, day 11): 2145
reverse transcriptase data ([2]; 30 μg/ml, day 18): 554
reverse transcriptase data ([2]; 30 μg/ml, day 25): 436
reverse transcriptase data ([2]; 30 μg/ml, day 32): 712
reverse transcriptase data ([2]; 30 μg/ml, day 39): 520
reverse transcriptase data ([2]; 30 μg/ml, day 46): 281
reverse transcriptase data ([2]; 30 μg/ml, day 53): 543
reverse transcriptase data ([2]; 30 μg/ml, day 60): 406
reverse transcriptase data ([2]; 30 μg/ml, day 67): 391
reverse transcriptase data ([2]; 30 μg/ml, day 71): 281
reverse transcriptase data ([2]; 30 μg/ml, day 74): 651
reverse transcriptase data ([2]; 30 μg/ml, day 88): 241
reverse transcriptase data ([2]; 30 μg/ml, day 95): 102
reverse transcriptase data ([2]; 30 μg/ml, day 102): 256
reverse transcriptase data ([2]; 30 μg/ml, day 109): 376
